The values that follow come from patent publication US20250367193A1, “BIFUNCTIONAL COMPOUNDS CONTAINING SUBSTITUTED PYRIMIDINE DERIVATIVES FOR DEGRADING CYCLIN-DEPENDENT KINASE 2 VIA UBIQUITIN PROTEASOME PATHWAY” (NIKANG THERAPEUTICS, INC., priority 2022, published 2025).

The target of this assay is T1, CDK2 (Homo sapiens, UniProt P24941).
T1 construct: High-Throughput Measurement of Cellular Endogenous CDK2; endogenous in cells; host or cells: OVCAR3
Put plainly: Inhibition of CDK2: phospho-Rb (S807/811) HTRF measurement in cells. It counts as cell-based. As to conditions: OVCAR3 cells (CDK2 dependent cell line), 24 h compound treatment, read-out: pRb. Here is the method:
Phosphorylation of RB protein at S807/811 are measured using HTRF phospho-RB cellular kits (Cat #64RBS807PEG) from Cisbio.
On Day 1, OVCAR3 (CDK2 dependent cell line) cells are seeded into 96-well tissue-culture treated plates at 20,000 cells/well in 200 μL and incubated overnight at 37° C. in CO2 atmosphere. On Day 2, the cells are treated with test compounds at concentrations from 0.3 to 10,000 nM using HP D300 digital dispenser. Twenty-four hours after compound treatment, cell culture media is removed by flicking the plate and tapping the plate against clean paper towel. Immediately 30 μL 1× lysis buffer is supplemented from the kit and the plate is incubated at room temperature on shaker for 30 min. After homogenization by pipetting up and down, 8 μL cell lysate from 96-well cell culture plate is transferred to 384-well small volume white detection plate. 2 μL premixed detection solution is added and the plate was covered with sealer. To prepare the detection solution, d2 conjugated-phospho-RB antibody and Eu-cryptate conjugated phosphor-RB antibody are diluted into detection buffer following manufacturer's instruction. Detection plates are incubated for 4 h at room temperature and read on ClarioStar (BMG Labtech) in TR-FRET mode ([…]). The TR-FRET ratio (665 nM/620 nM) is plotted against the compound concentration and normalized to DMSO controls. Half maximal inhibition concentration (IC50) values are calculated with a four-parameter logistic fit using GraphPad Prism (version 8; La Jolla, CA).
(In general: Time-resolved FRET reads energy transfer from a long-lived donor to a nearby acceptor.)
For `Cn1nc(N2CCC(=O)NC2=O)c2ccc(C3CCN(Cc4cccc(S(=O)(=O)N5CCC(Nc6ncc(C(F)(F)F)c(OC7CCCC7)n6)CC5)c4)CC3)cc21` [Cpd 2, 1-(6-(1-(3-((4-((4-(cyclopentyloxy)-5-(trifluoromethyl)pyrimidin-2-yl)amino)-piperidin-1-yl)sulfonyl)benzyl)-piperidin-4-yl)-1-methyl-1H-indazol-3-yl)dihydro-pyrimidine-2,4(1H,3H)-dione], the IC50 fell in the range of 28 to 100 nM.

As for `Cn1nc(N2CCC(=O)NC2=O)c2ccc(C3CCN(Cc4cccc(S(=O)(=O)N5CCC(Nc6ncc(C(F)(F)F)c(OC7CCC7)n6)CC5)c4)CC3)cc21` [Cpd 5, 1-(6-(1-(3-((4-((4-cyclobutoxy-5-(trifluoro-methyl)pyrimidin-2-yl)amino)piperidin-1-yl)sulfonyl)benzyl)piperidin-4-yl)-1-methyl-1H-indazol-3-yl)dihydropyrimidine-2,4(1H,3H)-dione], the IC50 fell in the range of 28 to 100 nM.

In the case of `Cn1nc(N2CCC(=O)NC2=O)c2ccc(C3CCN(Cc4cccc(S(=O)(=O)N5CCC(Nc6ncc(C(F)(F)F)c(N7CCCC7)n6)CC5)c4)CC3)cc21` [Cpd 4, 1-(1-methyl-6-(1-(3-((4-((4-(pyrrolidin-1-yl)-5-(trifluoromethyl)pyrimidin-2-yl)amino)-piperidin-1-yl)sulfonyl)benzyl)piperidin-4-yl)-1H-indazol-3-yl)dihydropyrimidine-2,4(1H,3H)-dione], the IC50 lay in the range of 100 to 500 nM.

For `Cn1nc(N2CCC(=O)NC2=O)c2ccc(C3CCN(Cc4cccc(S(=O)(=O)N5CCC(Nc6ncc(C(F)(F)F)c(N7CCCCC7)n6)CC5)c4)CC3)cc21` [Cpd 1, 1-(1-methyl-6-(1-(3-((4-((4-(piperidin-1-yl)-5-(trifluoromethyl)pyrimidin-2-yl)amino)-piperidin-1-yl)sulfonyl)benzyl)-piperidin-4-yl)-1H-indazol-3-yl)dihydropyrimidine-2,4(1H,3H)-dione], the IC50 lay within 100 to 500 nM.

In the case of `Cn1nc(N2CCC(=O)NC2=O)c2ccc(C3CCN(Cc4cccc(S(=O)(=O)N5CCC(Nc6ncc(C(F)(F)F)c(O[C@@H]7CCC[C@@H]7O)n6)CC5)c4)CC3)cc21` (racemic) [Cpd 3, Rac-1-(6-(1-(3-((4-((4-(((1R,2S)-2-hydroxy-cyclopentyl)oxy)-5-(trifluoro-methyl)-pyrimidin-2-yl)amino)piperidin-1-yl)-sulfonyl)benzyl)piperidin-4-yl)-1-methyl-1H-indazol-3-yl)dihydropyrimidine-2,4(1H,3H)-dione], the IC50 fell in the range of 28 to 100 nM.

Take `Cn1nc(N2CCC(=O)NC2=O)c2ccc(C3CCN(CC4CCN(S(=O)(=O)c5ccc(Nc6ncc(C(F)(F)F)c(O[C@H]7CCC[C@H]7O)n6)cc5)CC4)CC3)cc21` (racemic) [compound 6, Rac-1-(6-(1-((1-((4-((4-(((1S,2R)-2-hydroxy-cyclopentyl)oxy)-5-(trifluoromethyl)-pyrimidin-2-yl)amino)phenyl)-sulfonyl)-piperidin-4-yl)methyl)piperidin-4-yl)-1-methyl-1H-indazol-3-yl)dihydropyrimidine-2,4(1H,3H)-dione]: the IC50 was in the range of 100 to 500 nM.
